Measurements reported in patent US20110097410A1, “FORMULATIONS OF PX COMPOUNDS” (priority 2007, published 2011).

Assays:
[1] = particle size after high pressure homogenization (photon correlation spectroscopy); type: physicochemical
Description: PX-18 powder was dispersed in a 1% Tween 80 carrier. The composition of the formulation was 1% PX-18, 1% Tween 80 and 98% water. The obtained macrosuspension was passed through a micron LAB 40 homogenizer (APV Homogenizer Systems, Unna/Germany) at 1500 bar, applying one homogenization cycle. The particle size was determined by photon correlation spectroscopy (PCS, Malvern Zetasizer Nano ZS, Malvern Instruments, United Kingdom), The mean particle size (z-average) was 745 nm.
A second macrosuspension of PX-18 was prepared as described above, and subsequently homogenized. The homogenization parameters were 1500 bar and 20 homogenization cycles.
A suspension of 1% PX-13 was prepared in an aqueous preparation of 2% Planta Care 2000. After homogenization applying 20 cycles at 1500 bar, a PCS mean diameter of 33 nm was obtained.

[2] = solubility in aqueous solutions; type: physicochemical
Text: Despite the apparent efficacy of PX compounds in treating various disease conditions, their use is limited due to a problem of extremely low solubility. […] This very poor solubility generally leads to insufficient bioavailability alter administration, likely because the dissolution velocity is too slow.

Rabbits = conditions: rabbit, in vivo, iv
[3] = system: ischemia-induced impaired vasodilation; test: ischemia-induced impaired vasodilation; type: in vivo, newborn piglets; conditions: for effect on impaired hypercapnic vasodilation after global ischemia: FIG. 11
Description: (§1) The ability of PX-18 nanoparticles to influence 1) basal and induced arterial dilation; and 2) ischemia-induced impaired vasodilation (due to bradykinin, N-methyl-D-aspartic acid (NMDA) and ischemia-reperfusion) was studied in newborn piglets (1-2-day old, n=44). The piglets were anesthetized, ventilated, and equipped with arterial and venous catheters and a closed cranial window. Xanoparticulate PX-18 was administered iv at a concentration of 6 mg/kg.
The protocol for testing the effect of ischemia-induced impaired vasodilation is preseted in FIG. 8. […] In addition, intravenous but not topical treatment with PX-18 restored impaired hypercapnic vasodilation after global ischemia (FIG. 11).

pial arterioles = test: basal and induced pial arteriolar dilation and hemodynamics; type: in vivo, newborn piglets
Description: as §1

[4] = system: hippocampus neurons after ischemia; test: common carotid artery occlusion, alive hippocampal neurons; type: in vivo, Gerbils; conditions: 1% nanoparticle formulation, 40-50 nm, subcutaneously 5 min, 24 hr and 48 hr after ischemia, day 4
Description: Common carotid arteries of Gerbils (6 gerbils per group) were occluded for 5 minutes to induce ischemia. Thereafter, a nanoparticle formulation of PX-18 (1% formulation, particles size of 40-50 nanometers) was administered subcutaneously 5 min, 24 hr and 48 hr after ischemia. After surgery, the gerbils were returned to their cages where, upon awakening, they were able to resume their normal locomotor functions. They were sacrificed on day 4. The hippocampus was sectioned and the number of alive neurons was assessed. In the ischemic animals, sPLA2 unregulated within 24 hr after ischemia and most neurons were dead by 4 days. PX-18 reduced neuronal damage in a dose dependent manner, providing approximately 30% protection at a dose of 30 mg/kg and 45% protection at a dose of 60 mg/kg, […]

[5] = system: ischemia-reperfusion in the heart; test: infarct size after regional ischemia/reperfusion in the heart; type: in vivo, Rabbits; conditions: PX-18 60 mg/kg ip; P<0.05
Description: The protective effect of PX-18 during ischemia-reperfusion in the heart was assessed. Since opening of mitochondrial KATP channels are essential components of ischemic tolerance induced by preconditioning in heart, the role of these channels in PX-18-induced cardioprotection was also examined. Briefly, 180 mg of PX-18 was put into a small homogenizing tube containing 3 ml of ethylene glycol in a homogenizing tube and warming it to about 50° C. Several bursts of sonication (about 10 seconds) were applied in a nitrogen gas bath to minimize oxidation, followed by homogenization. This procedure was repeated 4-5 times until a uniform cloudy proportion that was easily injected through a needle was obtained. Procedures of this type generate PX-18 particles of a size in the micrometer range. Rabbits were treated with the sonicated preparation, of PX-18 (60 mg/kg ip). 30 minutes later the hearts were subjected to 30 minutes of regional ischemia followed by 3 hours of reperfusion. Mitochondrial KATP channel blocker 5-hydroxydecanoate (5-HD, 5 mg/kg iv) was given 10 min before ischemia/reperfusion. Infarct size was measured by computer morphometry of tetrazolium stained sections.

solubility in solvents = type: physicochemical
Text: PX-18, a specific inhibitor of sPLA2, is a fatty moiety feat is soluble in methylene chloride, chloroform and ethyl acetate. […] Its solubility in water is typically very low.

[6] = dissolution velocity: amount suspended in water after 5 minutes (gravimetry); type: physicochemical
Description: 1 ml of macrosuspension (PX powder, dispersed in water) and 1 ml of PX-18 nanosuspension (diameter 40 nm) was added to 9 ml of de-mineralised water and stirred with a magnetic stirrer for 5 minutes. Each 10 ml sample was then filtered to remove non-suspended PX-18, and the amount of suspended PX-18 was determined by gravimetry. While the concentration of PX-18 in both suspensions was 1% (w/w), about 91% of the nanoparticles had become suspended within 5 minutes compared to just 8.4% of the macrosuspension.
To farther assess the importance of nanoparticle size on the dissolution velocity of PX-18, the dissolution velocity of PX-18 nanoparticles with a size of 40 nm was compared to that of PX-18 nanoparticles with a size of 200 nm. The analysis was performed as described above. After 5 minutes, about 91% of the 40 nm particles were suspended, whereas die larger 200 nm nanoparticles were suspended to about 41%.

**Q.** For CCCCCCCC/C=C\CCCCCCCC(=O)OCC(COC(=O)CCCCCCC/C=C\CCCCCCCC)(COC(=O)CCCCCCC/C=C\CCCCCCCC)NCCS(=O)(=O)O [PX-13], which PCS mean diameter ([1]; 1% PX-13 in aqueous 2% Planta Care 2000, 20 cycles at 1500 bar) is on record?
**A.** 33 nm

**Q.** And the “particle size (PCS, z-average)” value ([1]; one homogenization cycle at 1500 bar)?
**A.** 400-900 nm

**Q.** And the “solubility in aqueous solutions” value [2]?
**A.** about 5 μg/ml

**Q.** Which results are given for CCCCCCCC/C=C\CCCCCCCC(=O)OCCN(CCOC(=O)CCCCCCC/C=C\CCCCCCCC)CCS(=O)(=O)O [PX-18]?
**A.** survival (Rabbits): did not survive; effect on impaired hypercapnic vasodilation after global ischemia ([3]; intravenous treatment): restored; effect on ischemia-induced impaired vasodilation caused by N-methyl-D-aspartic acid ([3]; iv administered, NMDA 10^−4M, FIG. 10): counteracts; effect on ischemia-induced impaired vasodilation caused by bradykinin ([3]; iv administered, bradykinin 10^−8M, FIG. 9): counteracts; effect on impaired hypercapnic vasodilation after global ischemia ([3]; topical treatment): not topical; time to normalization of MABP and pial arteriole diameter (pial arterioles; after iv bolus, 6 mg/kg): 4 to 6 min; effect on basal and hypercapnia-induced (endothelium and COX dependent) pial arterial dilation (pial arterioles; intravenous, FIG. 6): did not influence; pial arteriole dilation (pial arterioles; iv bolus of nanoparticle formulation, 6 mg/kg, transient): 32±1%; mean arterial blood pressure (MABP) after bolus (pial arterioles; iv bolus of nanoparticle formulation, 6 mg/kg, transient decrease from 62±7 mmHg): 40±5 mmHg; pial arteriole dilation (Mean±SEM) (pial arterioles; nanoparticle formulation, 10^−4M, topically onto the brain surface): 16±5%; effect on PACAP induced (non-endothelium but COX-dependent) pial arteriolar dilation (pial arterioles; topical, FIG. 7): impaired; protection against neuronal damage ([4]; 30 mg/kg): approximately 30%; protection against neuronal damage ([4]; 60 mg/kg): ~45%; reduction of infarct size versus vehicle [5]: 43%; solubility in aqueous solutions [2]: approximately 24 μg/ml; solubility (solubility in solvents; in acetone and methanol): insoluble; solubility (solubility in solvents; in dimethylsulfoxide (DMSO)): limited solubility; solubility (solubility in solvents; in methylene chloride, chloroform and ethyl acetate): soluble; solubility (solubility in solvents; in water): very low; amount suspended ([6]; macrosuspension (powder, μm-sized particles), 1% (w/w), 1 ml in 9 ml de-mineralised water, stirred 5 minutes): 8.4%; amount suspended ([6]; nanoparticles with a size of 200 nm, after 5 minutes): about 41%
